The term IC50 denotes the concentration that gives 50% inhibition. For orientation: inhibition means the drop in the measured response relative to a control, in per cent.

The values that follow come from patent publication US9890185B2, “Urea derivatives useful as kinase inhibitors” (Respivert Limited, priority 2013, dated 2018).

One test has as its target c-Src (Homo sapiens (Human), UniProt P12931). The test can be described thus: c-Src enzyme inhibition (FRET, Z-LYTE). The test is classed as biochemical. The essentials: (§1)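 Z-LYTE FRET read-out uses protease cleavage of unphosphorylated peptide, and the donor/acceptor ratio reflects phosphorylation. Kinase stocks (c-Src 3000, Syk 2000 ng/mL) were preincubated 2 hr RT with compound stocks of 0.004–4 μg/mL. Peptide and ATP solutions (c-Src 800 μM, Syk 60 μM) were then added for 1 hr. IC50 was taken from concentration-response.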

A further test concerns the target Syk (Homo sapiens (Human), UniProt P43405). Briefly: Syk enzyme inhibition (FRET, Z-LYTE). In kind it is biochemical. The essentials:
as §1

In the next test the target is GSK 3α (Homo sapiens (Human), UniProt P49840). The test can be described thus: GSK 3α enzyme inhibition (FRET, Z-LYTE, Method 2). The test is classed as biochemical. Particulars: read-out: IC50 Values for Enzyme Inhibition, GSK3α. The essentials:
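Human GSK3α (500 ng/mL) preincubated with compound (4, 0.4, 0.04 or 0.004 μg/mL) at RT for 2 h (Method 1) or 105 min (Method 2). Then FRET peptide (8 μM) and ATP (40 μM) added for 1 h, followed by protease development for 1 h. IC50 from the coumarin/fluorescein emission ratio relative to uninhibited control.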

Test [1] relates to PBMCs. The test can be described thus: IL-2 release in CD3/CD28 stimulated PBMC cells (assay c). Particulars: Homo sapiens, read-out: IC50 Values for Inhibition of Cytokine Release, PBMCs IL-2. In kind it is cell-based. The essentials:
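Steps: PBMCs separated from healthy whole blood by density gradient; seeded onto anti-CD3/CD28 coating (0.3 and 3 μg/mL respectively); compound added; incubated 3 days in standard tissue culture; supernatant cytokines quantified by sandwich ELISA, IC50 fitted.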

Test [2] relates to PBMCs. The test can be described thus: Cell mitosis assay in PBMCs (assay g). The settings on record: Homo sapiens, PBMC, test compound 5 μg/mL. The test is classed as cell-based. The essentials:
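Metaphase arrest with 0.1 μg/mL demecolcine during the final 2 hr of a 20 hr compound exposure, which follows 48 hr of 2% PHA stimulation of healthy-donor human PBMCs. Mitotic lymphocytes counted by flow cytometry (anti-phospho-histone 3 plus propidium iodide). Inhibition expressed relative to 0.5% DMSO.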

Another test relates to d-U937 cells. Briefly: Accumulation of β catenin in d-U937 cells (assay m). The test is classed as cell-based, human. The settings on record: percentage relative to Reference Compound at 1 μg/mL. The essentials:
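Read-out: colourimetric cell-based immunoassay for endogenous β-catenin (OD450 minus 655 reference), normalised to crystal violet absorbance at 595 nm. Test compound or vehicle was applied for 18 hr to U937 monocytes first differentiated with PMA (100 ng/mL) for 48–72 hr.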

Sequence of GSK 3α (P49840 whole entry): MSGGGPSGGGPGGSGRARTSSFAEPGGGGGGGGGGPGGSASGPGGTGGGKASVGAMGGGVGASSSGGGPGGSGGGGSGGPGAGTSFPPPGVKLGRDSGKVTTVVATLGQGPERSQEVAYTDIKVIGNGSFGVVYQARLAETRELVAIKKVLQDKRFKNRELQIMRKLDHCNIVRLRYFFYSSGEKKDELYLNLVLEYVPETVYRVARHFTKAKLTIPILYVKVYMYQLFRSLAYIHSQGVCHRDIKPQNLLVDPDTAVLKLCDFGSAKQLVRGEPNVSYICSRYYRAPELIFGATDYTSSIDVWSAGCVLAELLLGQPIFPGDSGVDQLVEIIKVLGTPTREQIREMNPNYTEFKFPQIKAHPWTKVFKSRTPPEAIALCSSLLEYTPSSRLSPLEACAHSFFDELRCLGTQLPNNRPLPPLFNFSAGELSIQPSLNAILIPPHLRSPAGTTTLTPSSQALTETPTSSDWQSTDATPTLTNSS
Sequence of c-Src (P12931 whole entry, looked up): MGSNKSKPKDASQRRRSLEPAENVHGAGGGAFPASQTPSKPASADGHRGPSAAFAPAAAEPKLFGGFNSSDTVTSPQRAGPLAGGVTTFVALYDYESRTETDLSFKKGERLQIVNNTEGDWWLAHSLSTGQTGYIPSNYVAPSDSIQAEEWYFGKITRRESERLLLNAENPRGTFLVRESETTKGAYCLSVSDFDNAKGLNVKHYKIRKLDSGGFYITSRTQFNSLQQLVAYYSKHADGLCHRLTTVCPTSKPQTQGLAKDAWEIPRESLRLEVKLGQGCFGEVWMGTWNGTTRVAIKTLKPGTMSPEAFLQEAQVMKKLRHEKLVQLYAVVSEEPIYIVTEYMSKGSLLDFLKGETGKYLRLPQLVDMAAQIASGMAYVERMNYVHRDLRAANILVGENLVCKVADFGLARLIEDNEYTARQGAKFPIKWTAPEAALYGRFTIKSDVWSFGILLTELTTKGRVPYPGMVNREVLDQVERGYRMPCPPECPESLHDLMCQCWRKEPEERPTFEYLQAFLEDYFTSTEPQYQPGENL

Regarding `COCCOCCOCCOc1cc(Nc2nccc(Oc3ccc(NC(=O)Nc4cc(C(C)(C)C)cc(C(=O)NCCN5CCOCC5)c4OC)c4ccccc34)n2)cc(OC)c1` [Example 8, 5-(tert-Butyl)-2-methoxy-3-(3-(4-((2-((3-methoxy-5-(2-(2-(2-methoxyethoxy)ethoxy)-ethoxy)phenyl)amino)pyrimidin-4-yl)oxy)naphthalen-1-yl)ureido)-N-(2-morpholinoethyl)-benzamide], the IC50 was 0.014 µM at c-Src, 0.042 µM against Syk, 0.788 µM at GSK 3α and 0.0414 µM in the test on PBMCs [1]. In the test on PBMCs [2], testing at 5 µg/mL gave an inhibition of 58.1%. Further, the “% β-catenin induction” value in the test with d-U937 cells (test compound 1 μg/mL) was 2.5%; in the test on d-U937 cells (test compound 5 μg/mL), 22.5%; in the test with d-U937 cells (test compound 10 μg/mL), 26.5%.

As for `COCCOCCOCCOc1cc(Nc2cc(Oc3ccc(NC(=O)Nc4cc(C(C)(C)C)cc(S(C)(=O)=O)c4OC)c4ccccc34)ccn2)cc(OC)c1` [Example 9, 1-(5-(tert-Butyl)-2-methoxy-3-(methylsulfonyl)phenyl)-3-(4-((2-((3-methoxy-5-(2-(2-(2-methoxyethoxy)ethoxy)ethoxy)phenyl)amino)pyridin-4-yl)oxy)naphthalen-1-yl)urea], the IC50 was 0.052 µM against c-Src, 0.233 µM against Syk, greater than 10.7 µM on GSK 3α and 0.0427 µM with PBMCs [1]. Also, the inhibition at 5 µg/mL in the test with PBMCs [2] worked out at 50.8%. Further, the “% β-catenin induction” value is 4.5% with d-U937 cells (test compound 1 μg/mL), 5.5% with d-U937 cells (test compound 5 μg/mL) and 0.0% with d-U937 cells (test compound 10 μg/mL).

Regarding `COc1cc(Nc2cc(Oc3ccc(NC(=O)Nc4cc(C(C)(C)C)cc(CC(N)=O)c4OC)c4ccccc34)ccn2)cc(OC)c1` [Example 30, 2-(5-(tert-Butyl)-3-(3-(4-((2-((3,5-dimethoxyphenyl)amino)pyridin-4-yl)oxy)naphthalen-1-yl)ureido)-2-methoxyphenyl)acetamide], the IC50 against c-Src was 0.06 µM; on Syk it was 0.708 µM; on GSK 3α, greater than 15.4 µM; with PBMCs [1], 0.0945 µM. The compound further gave an inhibition at 5 µg/mL in the test on PBMCs [2] of 48.7%. Besides, the figures for the “% β-catenin induction” value in the test on d-U937 cells (test compound 1 μg/mL), with d-U937 cells (test compound 5 μg/mL) and in the test with d-U937 cells (test compound 10 μg/mL) were 6.5%, 23.5% and 1.0%, respectively.

Turning to `COc1cccc(Nc2cc(Oc3ccc(NC(=O)Nc4cc(C(C)(C)C)cc(CC(N)=O)c4OC)c4ccccc34)ccn2)c1` [Example 33, 2-(5-(tert-Butyl)-2-methoxy-3-(3-(4-((2-((3-methoxyphenyl)amino)pyridin-4-yl)oxy)naphthalen-1-yl)ureido)phenyl)acetamide], the IC50 on c-Src amounted to 0.063 µM; on Syk it was 0.519 µM; on GSK 3α, 10.5 µM; with PBMCs [1], 0.117 µM. In the test on PBMCs [2], this compound showed an inhibition at 5 µg/mL of 31.3%. Moreover, the figures for the “% β-catenin induction” value in the test with d-U937 cells (test compound 1 μg/mL), with d-U937 cells (test compound 5 μg/mL) and with d-U937 cells (test compound 10 μg/mL) were −1.0%, 3.5% and 9.5%, respectively.

Take `COc1c(CP(C)(C)=O)cc(C(C)(C)C)cc1NC(=O)Nc1ccc(Oc2ccnc(Nc3ccccc3)c2)c2ccccc12` [Example 24, 1-(5-(tert-Butyl)-3-((dimethylphosphoryl)methyl)-2-methoxyphenyl)-3-(4-((2-(phenylamino)-pyridin-4-yl)oxy)naphthalen-1-yl)urea]: the IC50 against c-Src is 0.168 µM; at Syk, 0.289 µM; at GSK 3α, 7.45 µM; in the test on PBMCs [1], 0.276 µM. In addition, the inhibition at 5 µg/mL in the test on PBMCs [2] worked out at 37.9%. For the same compound, the “% β-catenin induction” value with d-U937 cells (test compound 1 μg/mL) was −3.0%; with d-U937 cells (test compound 5 μg/mL), 13.0%; in the test on d-U937 cells (test compound 10 μg/mL) it was 16.5%.

As to `COc1cc(Nc2cc(Oc3ccc(NC(=O)Nc4cc(C(C)(C)C)cc(CNC(C)=O)c4OC)c4ccccc34)ccn2)cc(OC)c1` [Example 44, N-(5-(tert-Butyl)-3-(3-(4-((2-((3,5-dimethoxyphenyl)amino)pyridin-4-yl)oxy)naphthalen-1-yl)ureido)-2-methoxybenzyl)acetamide], the IC50 at c-Src is 0.067 µM; against Syk it was 0.095 µM; on GSK 3α, greater than 15.1 µM; in the test on PBMCs [1], 0.0283 µM. This compound displayed an inhibition at 5 µg/mL with PBMCs [2] of 42.8%. In addition, the figures for the “% β-catenin induction” value in the test with d-U937 cells (test compound 1 μg/mL), with d-U937 cells (test compound 5 μg/mL) and with d-U937 cells (test compound 10 μg/mL) were 5.0%, 8.0% and 11.0%, respectively.

For `COc1cccc(Nc2cc(Oc3ccc(NC(=O)Nc4cc(C(C)(C)C)cc([S+](C)[O-])c4OC)c4ccccc34)ccn2)c1` (stereo not drawn) [Example 41, 1-(5-(tert-Butyl)-2-methoxy-3-(methylsulfinyl)phenyl)-3-(4-((2-((3-methoxyphenyl)amino)pyridin-4-yl)oxy)naphthalen-1-yl)urea], the half-inhibitory concentration (IC50) was found to be 0.072 µM against c-Src, 0.247 µM at Syk, 10.2 µM at GSK 3α and 0.184 µM in the test on PBMCs [1]. Moreover, the inhibition at 5 µg/mL in the test on PBMCs [2] amounted to 36%. The “% β-catenin induction” value in the test with d-U937 cells (test compound 1 μg/mL) was −1.0%; with d-U937 cells (test compound 5 μg/mL) it was −1.5%; with d-U937 cells (test compound 10 μg/mL), 1.5%.

On to `COc1c(C[S+](C)[O-])cc(C(C)(C)C)cc1NC(=O)Nc1ccc(Oc2ccnc(Nc3ccccc3)c2)c2ccccc12` (stereo not drawn) [Example 25, 1-(5-(tert-Butyl)-2-methoxy-3-((methylsulfinyl)methyl)phenyl)-3-(4-((2-(phenylamino)pyridin-4-yl)oxy)naphthalen-1-yl)urea], for which the half-maximal inhibitory concentration (IC50) amounted to 0.224 µM on c-Src, 0.724 µM against Syk, 9.62 µM on GSK 3α and 0.175 µM in the test with PBMCs [1]. In the test on PBMCs [2], this compound showed an inhibition at 5 µg/mL of 24.5%. Also, the “% β-catenin induction” value in the test on d-U937 cells (test compound 1 μg/mL) is recorded as 1.0%; in the test with d-U937 cells (test compound 5 μg/mL), 8.0%; in the test on d-U937 cells (test compound 10 μg/mL), 17.5%.

For the compound `COc1cncc(Nc2cc(Oc3ccc(NC(=O)Nc4cc(C(C)(C)C)cc(CC(N)=O)c4OC)c4ccccc34)ccn2)c1` [38(n), 2-(5-(tert-butyl)-2-methoxy-3-(3-(4-((2-((5-methoxypyridin-3-yl)amino)pyridin-4-yl)oxy)naphthalen-1-yl)ureido)phenyl)acetamide], the concentration for half-maximal inhibition (IC50) against c-Src is 0.095 µM; at Syk, greater than 1.61 µM; on GSK 3α, 1.2 µM; in the test on PBMCs [1] it was 0.348 µM. Further, the inhibition at 5 µg/mL in the test on PBMCs [2] stood at 66.1%. Moreover, the results for the “% β-catenin induction” value with d-U937 cells (test compound 1 μg/mL), in the test with d-U937 cells (test compound 5 μg/mL) and in the test with d-U937 cells (test compound 10 μg/mL) were 2.0%, 21.0% and 23.5%, respectively.

For the compound `COc1c(NC(=O)Nc2ccc(Oc3ccnc(Nc4cccnc4)c3)c3ccccc23)cc(C(C)(C)C)cc1P(C)(C)=O` [15(ad), 1-(5-(tert-butyl)-3-(dimethylphosphoryl)-2-methoxyphenyl)-3-(4-((2-(pyridin-3-ylamino)pyridin-4-yl)oxy)naphthalen-1-yl)urea], the IC50 against c-Src turned out to be 0.129 µM; against Syk it was 1 µM; on GSK 3α, 1.6 µM; in the test with PBMCs [1], 1.11 µM. The inhibition at 5 µg/mL with PBMCs [2] is 31%. In addition, the results for the “% β-catenin induction” value in the test on d-U937 cells (test compound 1 μg/mL), in the test on d-U937 cells (test compound 5 μg/mL) and in the test with d-U937 cells (test compound 10 μg/mL) were 12.0%, 36.0% and 49.0%, respectively.

`COCCOCCOCCOc1cc(Nc2cc(Oc3ccc(NC(=O)Nc4cc(C(C)(C)C)cc(CS(C)(=O)=O)c4OC)c4ccccc34)ccn2)cc(OC)c1` [15(a), 1-(5-(tert-butyl)-2-methoxy-3-((methylsulfonyl)methyl)phenyl)-3-(4-((2-((3-methoxy-5-(2-(2-(2-methoxyethoxy)ethoxy)ethoxy)phenyl)amino)pyridin-4-yl)oxy)naphthalen-1-yl)urea]: the IC50 is 0.028 µM on c-Src, 0.134 µM on Syk, greater than 12.2 µM on GSK 3α and 0.0432 µM with PBMCs [1]. This compound came in with an inhibition at 5 µg/mL with PBMCs [2] of 56.8%. Moreover, the “% β-catenin induction” value with d-U937 cells (test compound 1 μg/mL) is reported as −4.0%; with d-U937 cells (test compound 5 μg/mL), −5.0%; in the test with d-U937 cells (test compound 10 μg/mL) it was −3.0%.

Regarding `COCCOCCOCCOc1cc(Nc2cc(Oc3ccc(NC(=O)Nc4cc(C(C)(C)C)cc(P(C)(C)=O)c4)c4ccccc34)ccn2)cc(OC)c1` [Example 10, 1-(3-(tert-Butyl)-5-(dimethylphosphoryl)phenyl)-3-(4-((2-((3-methoxy-5-(2-(2-(2-methoxy-ethoxy)ethoxy)ethoxy)phenyl)amino)pyridin-4-yl)oxy)naphthalen-1-yl)urea], the half-maximal inhibitory concentration (IC50) at c-Src is 0.016 µM; at Syk, greater than 0.887 µM; at GSK 3α, greater than 8.34 µM; in the test with PBMCs [1], 0.0886 µM. Besides, in the test with PBMCs [2], testing at 5 µg/mL gave an inhibition of 39.3%. The results for the “% β-catenin induction” value in the test with d-U937 cells (test compound 1 μg/mL), in the test on d-U937 cells (test compound 5 μg/mL) and with d-U937 cells (test compound 10 μg/mL) were −2.5%, −6.0% and −4.0%, respectively.
